The text below walks through data of patent US11505548B2, “Heterocyclic compounds and their use for treatment of helminthic infections and diseases” (Celgene Corporation, priority 2019, dated 2022).

In the first experiment the test system is Onchocerca gutturosa Adult Male Worms. Briefly: Onchocerciasis in vitro screening model, worm motility score. In kind it is cell-based. The conditions noted are these: Onchocerca gutturosa; Table 1 O. gutturosa; levels A/B/C; motility or MTT readout not specified; read-out: O. gutturosa activity level (IC50 or MED).
Turning to `CC(C)Oc1ccc(-c2nsc(Nc3ncc(C(=O)NC4CC(F)(F)C4)cc3C(C)C)n2)nc1` [Compound 195, N-(3,3-difluoro-cyclobutyl)-6-(3-(5-isoprop-oxypyridin-2-yl)-1,2,4-thiadiazol-5-ylamino)-5-isopropyl-nicotinamide], the IC50 was less than 200 nM. On the same count and under the same terms, next, `COC(=O)c1cc(-c2nsc(Nc3ncccc3C)n2)ncc1OC(C)C` [Compound 196, methyl 5-isopropoxy-2-(5-(3-methylpyridin-2-ylamino)-1,2,4-thiadiazol-3-yl)isonicotinate]: 200 to 500 nM; `COC(=O)c1cc(-c2nsc(Nc3ncccc3C(C)C)n2)ncc1OC(C)C` [Compound 197, methyl 5-isopropoxy-2-(5-(3-isopropylpyridin-2-ylamino)-1,2,4-thiadiazol-3-yl)isonicotinate]: less than 200 nM.

Still in this experiment, the particulars now being: in vitro; Onchocerca gutturosa adult male worms; class A/B/C; read-out: O. gutturosa activity level (IC50 or MED).
For `CC(C)Oc1cnc(-c2nsc(Nc3ncccc3C(C)C)n2)cc1C(N)=O` [Compound 198, 5-isopropoxy-2-(5-(3-isopropylpyridin-2-ylamino)-1,2,4-thiadiazol-3-yl)isonicotin-amide], the half-inhibitory concentration (IC50) lay within 500 to 5000 nM.

Regarding `CC(=O)N(C)c1cccnc1Nc1nc(-c2ccc(OC3CCOCC3)cn2)ns1` [Compound 199, N-methyl-N-(2-(3-(5-(tetrahydro-2H-pyran-4-yloxy)pyridin-2-yl)-1,2,4-thiadiazol-5-ylamino)pyridin-3-yl)acetamide], the IC50 was in the range of 500 to 5000 nM.

Consider `Cc1cccnc1Nc1nc(-c2cc(C#N)c(OC(C)C)cn2)ns1` [Compound 200, 5-isopropoxy-2-(5-(3-methylpyridin-2-ylamino)-1,2,4-thiadiazol-3-yl)isonicotino-nitrile], for which the IC50 fell in the range of 500 to 5000 nM. Turning to `CC(C)Oc1cnc(-c2nsc(Nc3ncccc3C(C)C)n2)cc1C#N` [Compound 201, 5-isopropoxy-2-(5-(3-isopropyl-pyridin-2-ylamino)-1,2,4-thiadiazol-3-yl)isonicotino-nitrile], the IC50 lay in the range of 500 to 5000 nM. On the same count and under the same terms, under `CC(=O)N(C)c1cccnc1Nc1nc(-c2cc3c(cn2)N(C)CC3)ns1` [Compound 202, N-methyl-N-(2-(3-(1-methyl-2,3-dihydro-1H-pyrrolo[2,3-c]pyridin-5-yl)-1,2,4-thiadiazol-5-ylamino)pyridin-3-yl)acetamide] stands 200 to 500 nM; under `CC(=O)N(C)c1cccnc1Nc1nc(-c2ccc(OC3CCN(C(C)C)CC3(F)F)cn2)ns1` (centres unmarked) [Compound 203, N-(2-(3-(5-(3,3-difluoro-1-isopropyl-piperidin-4-yloxy)pyridin-2-yl)-1,2,4-thiadiazol-5-ylamino)pyridin-3-yl)-N-methylacetamide], 500 to 5000 nM. Same read-out and setting: next, `O=C1CCCN1c1cccnc1Nc1nc(-c2ccc(NC34CC(C3)C4)cn2)ns1` [Compound 204, 1-(2-(3-(5-(bicyclo [1.1.1]pentan-1-ylamino)pyridin-2-yl)-1,2,4-thiadiazol-5-ylamino)pyridin-3-yl)pyrrolidin-2-one]: 500 to 5000 nM. On the same count and under the same terms, next, `CC(=O)N(c1cccnc1Nc1nc(-c2ccc(OC(C)C)cn2)ns1)C(C)C` [Compound 205, N-(2-(3-(5-isopropoxy-pyridin-2-yl)-1,2,4-thiadiazol-5-ylamino)pyridin-3-yl)-N-isopropy-lacetamide]: 500 to 5000 nM. For `CC(=O)N(C)c1cccnc1Nc1nc(-c2cc3c(cn2)N(C(C)C)CC3)ns1` [Compound 206, N-(2-(3-(1-isopropyl-2,3-dihydro-1H-pyrrolo[2,3-c]pyridin-5-yl)-1,2,4-thiadiazol-5-ylamino)pyridin-3-yl)-N-methylacetamide], the IC50 was in the range of 500 to 5000 nM. The same measure, in the same setting: under `CC(=O)N(C)c1cccnc1Nc1nc(-c2ccc(NC34CC(C3)C4)cn2)ns1` [Compound 207, N-(2-(3-(5-(bicyclo [1.1.1]pentan-1-ylamino)pyridin-2-yl)-1,2,4-thiadiazol-5-ylamino)pyridin-3-yl)-N-methylacetamide] stands 500 to 5000 nM; under `CC(=O)N(C)c1cccnc1Nc1nc(-c2cc(C)ccn2)ns1` [Compound 208, N-methyl-N-(2-(3-(4-methylpyridin-2-yl)-1,2,4-thiadiazol-5-ylamino)pyridin-3-yl)acetamide], 500 to 5000 nM. The same measure, in the same setting: next, `COc1ccc(-c2nsc(Nc3ccc(C(F)(F)F)cn3)n2)nc1` [Compound 209, 3-(5-methoxy-pyridin-2-yl)-N-(5-(trifluoromethyl)pyridin-2-yl)-1,2,4-thiadiazol-5-amine]: less than 200 nM; `COc1cccnc1-c1nsc(Nc2cc(C(F)(F)F)c(C(C)C)cn2)n1` [Compound 210, N-(5-isopropyl-4-(trifluoromethyl)pyridin-2-yl)-3-(3-methoxy-pyridin-2-yl)-1,2,4-thiadiazol-5-amine]: 200 to 500 nM; `Cc1cccnc1Nc1nnc(-c2cc(OC(C)C)ccn2)o1` [Compound 211, 5-(4-isopropoxy-pyridin-2-yl)-N-(3-methyl-pyridin-2-yl)-1,3,4-oxadiazol-2-amine]: 500 to 5000 nM. On the same count and under the same terms, under `COc1ccc(Nc2nnc(-c3cc(OC(C)C)ccn3)o2)nc1` [Compound 212, 5-(4-isoprop-oxypyridin-2-yl)-N-(5-methoxy-pyridin-2-yl)-1,3,4-oxadiazol-2-amine] stands 500 to 5000 nM; under `FC(F)(F)c1ccc(Nc2nc(-c3cc(OC4CCCCC4)ccn3)ns2)nc1` [Compound 213, 3-(4-(cyclo-hexyloxy)pyridin-2-yl)-N-(5-(trifluoromethyl)pyridin-2-yl)-1,2,4-thiadiazol-5-amine], less than 200 nM; under `COc1ccc(Nc2nnc(-c3cc(OC4CCCCC4)ccn3)o2)nc1` [Compound 214, 5-(4-(cyclohexy-loxy)pyridin-2-yl)-N-(5-methoxypyridin-2-yl)-1,3,4-oxadiazol-2-amine], less than 200 nM. With `COc1ccc(-c2nsc(Nc3ccc(OC(C)C)cn3)n2)nc1` [Compound 215, N-(5-isoprop-oxypyridin-2-yl)-3-(5-methoxy-pyridin-2-yl)-1,2,4-thiadiazol-5-amine], the IC50 fell in the range of 500 to 5000 nM. In the case of `CC(=O)N(C)c1cccnc1Nc1nc(-c2cc(C(C)C)ccn2)ns1` [Compound 216, N-(2-(3-(4-iso-propylpyridin-2-yl)-1,2,4-thiadiazol-5-ylamino)pyridin-3-yl)-N-methyl-acetamide], the IC50 lay within 200 to 500 nM. The same measure, in the same setting: next, `CC(C)c1ccnc(-c2nsc(Nc3ncccc3N(C)C(=O)C3CC3)n2)c1` [Compound 217, N-(2-(3-(4-isopropylpyridin-2-yl)-1,2,4-thiadiazol-5-ylamino)pyridin-3-yl)-N-methylcyclo-propanecarbox-amide]: 200 to 500 nM; `CC(C)Oc1cnc(-c2nsc(Nc3ncccc3C(F)(F)F)n2)cc1C(=O)N(C)C` [Compound 218, 5-isopropoxy-N,N-dimethyl-2-(5-(3-(trifluoromethyl)pyridin-2-ylamino)-1,2,4-thiadiazol-3-yl)isonico-tinamide]: 500 to 5000 nM; `CC(C)Oc1cnc(-c2nsc(Nc3ncc(C(C)C)cc3C(F)(F)F)n2)cc1C(=O)N(C)C` [Compound 219, 5-isopropoxy-2-(5-(5-isopropyl-3-(trifluoromethyl)pyridin-2-ylamino)-1,2,4-thiadiazol-3-yl)-N,N-dimethyliso-nicotinamide]: 200 to 500 nM. On the same count and under the same terms, under `CC(C)Oc1cnc(-c2nsc(Nc3ncccc3C(F)(F)F)n2)cc1C(N)=O` [Compound 220, 5-isopropoxy-2-(5-(3-(trifluoromethyl)pyridin-2-ylamino)-1,2,4-thiadiazol-3-yl)isonico-tinamide] stands 200 to 500 nM. For `CC(C)Oc1cnc(-c2nsc(Nc3ncc(C(C)C)cc3C(F)(F)F)n2)cc1C(N)=O` [Compound 221, 5-isopropoxy-2-(5-(5-isopropyl-3-(trifluoromethyl)pyridin-2-ylamino)-1,2,4-thiadiazol-3-yl)iso-nicotinamide], the IC50 lay within 200 to 500 nM.

`CC(=O)N(C)c1cccnc1Nc1nc(-c2ccc(OC(C)C)cn2)no1` [Compound 222, N-(2-(3-(5-isopropoxy-pyridin-2-yl)-1,2,4-oxadiazol-5-ylamino)pyridin-3-yl)-N-methyl-acetamide]: the IC50 lay in the range of 500 to 5000 nM. The same measure, in the same setting: under `CC(=O)N(C)c1cccnc1Nc1nc(-c2cc(C(C)C)c(C)cn2)ns1` [Compound 223, N-(2-(3-(4-isopropyl-5-methylpyridin-2-yl)-1,2,4-thiadiazol-5-ylamino)pyridin-3-yl)-N-methyl-acetamide] stands 200 to 500 nM. Take `CC(C)Oc1cnc(-c2nsc(Nc3ncccc3C(=O)N(C)C)n2)cc1C(F)(F)F` [Compound 225, 2-(3-(5-isopropoxy-4-(trifluoromethyl)pyridin-2-yl)-1,2,4-thiadiazol-5-ylamino)-N,N-dimethyl-nicotinamide]: the IC50 fell in the range of 500 to 5000 nM. Regarding `CC(=O)N(C)c1cccnc1Nc1nc(-c2cc(C#N)c(OC(C)C)cn2)ns1` [Compound 226, N-(2-(3-(4-cyano-5-isopropoxy-pyridin-2-yl)-1,2,4-thiadiazol-5-ylamino)pyridin-3-yl)-N-methyl-acetamide], the IC50 fell in the range of 500 to 5000 nM. As for `CN(C)C(=O)c1cccnc1Nc1nc(-c2cc3c(cn2)N(C)CC3)ns1` [Compound 229, N,N-dimethyl-2-(3-(1-methyl-2,3-dihydro-1H-pyrrolo[2,3-c]pyridin-5-yl)-1,2,4-thiadiazol-5-ylamino) nicotinamide], the IC50 was in the range of 500 to 5000 nM.

For the molecule `Cc1cccnc1Nc1nc(-c2cc(C(C)C)c(C(=O)N(C)C)cn2)ns1` [Compound 230, 4-isopropyl-N,N-dimethyl-6-(5-(3-methyl-pyridin-2-ylamino)-1,2,4-thiadiazol-3-yl)nicotinamide], the IC50 lay within 500 to 5000 nM. Same read-out and setting: under `Cc1cc(C#N)cnc1Nc1nc(-c2ccc(OC(C)C)cn2)ns1` [Compound 231, 6-(3-(5-isoprop-oxypyridin-2-yl)-1,2,4-thiadiazol-5-ylamino)-5-methyl-nicotinonitrile] stands 200 to 500 nM; under `CC(C)Oc1ccnc(-c2nnc(Nc3ccc(C(C)C)cn3)s2)c1` [Compound 232, 5-(4-isopropoxy-pyridin-2-yl)-N-(5-isopropyl-pyridin-2-yl)-1,3,4-thiadiazol-2-amine], 500 to 5000 nM.
